Experimental data: patent US6737383B1, “Herbicidal oxadiazolidines” (priority 1999, dated 2004)

Columns and labels:
cocklebur = assay: Test C postemergence cocklebur; format: in vivo, Xanthium strumarium; settings: 0 to 100 scale, 0 no effect, 100 complete control
Experimental: (§1) Compounds evaluated in this test were formulated in a non-phytotoxic solvent mixture which included a surfactant and applied to plants that were grown for various periods of time before treatment (postemergence application). A mixture of sandy loam soil and greenhouse potting mix in a 60:40 ratio was used for the postemergence test.
(§2) Plantings of these crops and weed species were adjusted to produce plants of appropriate size for the postemergence test. All plant species were grown using normal greenhouse practices. Crop and weed species include arrowleaf sida (Sida rhombifolia), barnyardgrass (Echinochloa crus-galli), cocklebur (Xanthium strumarium), common ragweed (Ambrosia elatior), corn (Zea mays), cotton (Gossypium hirsutum), eastern black nightshade (Solanum ptycanthum), fall panicum (Panicum dichotomiflorum), field bindweed (Convolvulus arvensis), giant foxtail (Setaria faberii), hairy beggarticks (Bidens pilosa), ivyleaf morningglory (Ipomoea hederacea), johnsongrass (Sorghum halepense), ladysthumb smartweed (Polygonum persicaria), lambsquarters (Chenopodium album), large crabgrass (Digitaria sanguinalis), purple nutsedge (Cyperus rotundus), redroot pigweed (Amaranthus retroflexus), soybean (Glycine max), surinam grass (Brachiaria decumbens), velvetleaf (Abutilon theophrasti) and wild poinsettia (Euphorbia heterophylla).
(§3) Treated plants and untreated controls were maintained in a greenhouse for approximately 14, to 21 days, after which all treated plants were compared to untreated controls and visually evaluated. Plant response ratings, summarized in Table C, were based upon a 0 to 100 scale where 0 was no effect and 100 was complete control. A dash response (−) means no test result.

ivyleaf morningglory = assay: Test C postemergence ivyleaf morningglory; format: in vivo, Ipomoea hederacea; settings: 0 to 100 scale, 0 no effect, 100 complete control
Experimental: as §1, §2, §3

large crabgrass = assay: Test C postemergence large crabgrass; format: in vivo, Digitaria sanguinalis; settings: 0 to 100 scale, 0 no effect, 100 complete control
Experimental: as §1, §2, §3

purple nutsedge = assay: Test C postemergence purple nutsedge; format: in vivo, Cyperus rotundus; settings: 0 to 100 scale, 0 no effect, 100 complete control
Summary of the method: (§4)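 Visual injury scored 0-100 (100 = complete control) versus untreated plants roughly 14 to 21 days after treatment. Plants were grown to suitable size in 60:40 sandy loam and potting mix, then treated postemergence with surfactant-containing solvent formulations.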

soybean = assay: Test C postemergence soybean; format: in vivo, Glycine max; settings: 0 to 100 scale, 0 no effect, 100 complete control
Experimental: as §1, §2, §3

velvetleaf = assay: Test C postemergence velvetleaf; format: in vivo, Abutilon theophrasti; settings: 0 to 100 scale, 0 no effect, 100 complete control
Summary of the method: as §4

galium = assay: Test E galium; format: in vivo, Galium aparine; settings: Postemergence
Summary of the method: (§5)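 Greenhouse test: compounds in non-phytotoxic solvent with surfactant; for postemergence, sprayed on plants at 1- to 4-leaf stage grown in 60:40 sandy loam/potting mix. Injury rated visually against untreated controls after about 21 to 28 days.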

Italian ryegrass = assay: Test E Italian ryegrass; format: in vivo, Lolium multiflorum; settings: Postemergence
Summary of the method: as §5

lambsquarters = assay: Test E lambsquarters; format: in vivo, Chenopodium album; settings: Postemergence
Experimental: as §1, with “in the 1- to 4-leaf stage” for “grown for various periods of time before treatment”
(§6) Plantings of these crops and weed species were adjusted to produce plants of appropriate size for the postemergence test. All plant species were grown using normal greenhouse practices. Crop and weed species include annual bluegrass (Poa annua), blackgrass (Alopecurus myosuroides), black nightshade (Solanum nigra), chickweed (Stellaria media), common poppy (Papaver rhoeas), deadnettle (Lamium amplexicaule), downy brome (Bromus tectorum), field violet (Viola arvensis), galium (Galium aparine), green foxtail (Setaria viridis), Italian ryegrass (Lolium multiflorum), jointed goatgrass (Aegilops cylindrica), kochia (Kochia scoparia), lambsquarters (Chenopodium album), littleseed canarygrass (Phalaris minor), rape (Brassica napus), redroot pigweed (Amaranthus retroflexus), Russian thistle (Salsola kali), scentless chamomile (Matricaria inodora), spring barley (Hordeum vulgare), sugar beet (Beta vulgaris), sunflower (Helianthus annuus), ivyleaf speedwell (Veronica hederaefolia), spring wheat (Triticum aestivum), winter wheat (Triticum aestivum), wild buckwheat (Polygonum convolvulus), wild mustard (Sinapis arvensis), wild oat (Avena fatua), windgrass (Apera spica-venti) and winter barley (Hordeum vulgare).
(§7) Treated plants and untreated controls were maintained in a greenhouse for approximately 21 to 28 days, after which all treated plants were compared to untreated controls and visually evaluated. […] A dash response (-) means no test result.

scentless chamomile = assay: Test E scentless chamomile; format: in vivo, Matricaria inodora; settings: Postemergence
Experimental: as §1, with “in the 1- to 4-leaf stage” for “grown for various periods of time before treatment”
as §6, §7

Russian thistle = assay: Test E Russian thistle; format: in vivo, Salsola kali; settings: Preemergence
wild mustard = assay: Test E wild mustard; format: in vivo, Sinapis arvensis; settings: Preemergence
[1] = Rate 250 g/ha, 0 to 100 scale where 0 is no effect and 100 is complete control
[2] = Rate 125 g/ha, 0 to 100 scale (0 no effect, 100 complete control)

CC(C)N(C(=O)n1oc(=O)n(C)c1=O)c1ccc(F)cc1 [Compound 138]
Plant response rating, Cocklebur (cocklebur; Rate 140 g/ha): 0 | Plant response rating, Cocklebur (cocklebur; Rate 280 g/ha): 0 | Plant response rating, Cocklebur (cocklebur; Rate 560 g/ha): 0 | Plant response rating, Cocklebur (cocklebur; Rate 1120 g/ha): 0 | Plant response rating I. morningglory (ivyleaf morningglory; Rate 140 g/ha): 0 | Plant response rating I. morningglory (ivyleaf morningglory; Rate 280 g/ha): 0 | Plant response rating I. morningglory (ivyleaf morningglory; Rate 560 g/ha): 0 | Plant response rating I. morningglory (ivyleaf morningglory; Rate 1120 g/ha): 0 | Plant response rating, Large crabgrass (large crabgrass; Rate 140 g/ha): 0 | Plant response rating, Large crabgrass (large crabgrass; Rate 280 g/ha): 10 | Plant response rating, Large crabgrass (large crabgrass; Rate 560 g/ha): 85 | Plant response rating, Large crabgrass (large crabgrass; Rate 1120 g/ha): 85 | Plant response rating, Purple nutsedge (purple nutsedge; Rate 140 g/ha): 0 | Plant response rating, Purple nutsedge (purple nutsedge; Rate 280 g/ha): 0 | Plant response rating, Purple nutsedge (purple nutsedge; Rate 560 g/ha): 50 | Plant response rating, Purple nutsedge (purple nutsedge; Rate 1120 g/ha): 70 | Plant response rating, Soybean (soybean; Rate 140 g/ha): 10 | Plant response rating, Soybean (soybean; Rate 280 g/ha): 30 | Plant response rating, Soybean (soybean; Rate 560 g/ha): 30 | Plant response rating, Soybean (soybean; Rate 1120 g/ha): 40 | Plant response rating, Velvetleaf (velvetleaf; Rate 140 g/ha): 0 | Plant response rating, Velvetleaf (velvetleaf; Rate 280 g/ha): 60 | Plant response rating, Velvetleaf (velvetleaf; Rate 560 g/ha): 70 | Plant response rating, Velvetleaf (velvetleaf; Rate 1120 g/ha): 80 | Plant response rating, Galium (galium; Rate 125 g/ha, 0 to 100 scale): 20 | Galium plant response rating (galium; [1]): 50 | Plant response rating, I. Ryegrass (Italian ryegrass; Rate 125 g/ha, 0 to 100 scale): 0 | I. Ryegrass plant response rating (Italian ryegrass; [1]): 0 | Plant response rating Lambsquarters (lambsquarters; Rate 125 g/ha, 0 to 100 scale): 10 | Lambsquarters plant response rating (lambsquarters; [1]): 30 | Plant response rating, Scentless chamo (scentless chamomile; Rate 125 g/ha, 0 to 100 scale): 20 | Scentless chamo plant response rating (scentless chamomile; [1]): 0 | Plant response rating, Russian thistle (Russian thistle; [2]): 10 | Russian thistle plant response rating (0 to 100 scale) (Russian thistle; Rate 250 g/ha): 20 | Plant response rating, Wild mustard (wild mustard; [2]): 40 | Wild mustard plant response rating (0 to 100 scale) (wild mustard; Rate 250 g/ha): 55
